The values below come from ChEMBL document CHEMBL1143442, “Inhibitors of the tyrosine kinase EphB4. Part 2: structure-based discovery and optimisation of 3,5-bis substituted anilinopyrimidines” (Bioorg Med Chem Lett, 2008).

For experiment [1], the target named is T1, Ephrin type-B receptor 4 (Homo sapiens, UniProt P54760).
T1 sequence (P54760 whole entry): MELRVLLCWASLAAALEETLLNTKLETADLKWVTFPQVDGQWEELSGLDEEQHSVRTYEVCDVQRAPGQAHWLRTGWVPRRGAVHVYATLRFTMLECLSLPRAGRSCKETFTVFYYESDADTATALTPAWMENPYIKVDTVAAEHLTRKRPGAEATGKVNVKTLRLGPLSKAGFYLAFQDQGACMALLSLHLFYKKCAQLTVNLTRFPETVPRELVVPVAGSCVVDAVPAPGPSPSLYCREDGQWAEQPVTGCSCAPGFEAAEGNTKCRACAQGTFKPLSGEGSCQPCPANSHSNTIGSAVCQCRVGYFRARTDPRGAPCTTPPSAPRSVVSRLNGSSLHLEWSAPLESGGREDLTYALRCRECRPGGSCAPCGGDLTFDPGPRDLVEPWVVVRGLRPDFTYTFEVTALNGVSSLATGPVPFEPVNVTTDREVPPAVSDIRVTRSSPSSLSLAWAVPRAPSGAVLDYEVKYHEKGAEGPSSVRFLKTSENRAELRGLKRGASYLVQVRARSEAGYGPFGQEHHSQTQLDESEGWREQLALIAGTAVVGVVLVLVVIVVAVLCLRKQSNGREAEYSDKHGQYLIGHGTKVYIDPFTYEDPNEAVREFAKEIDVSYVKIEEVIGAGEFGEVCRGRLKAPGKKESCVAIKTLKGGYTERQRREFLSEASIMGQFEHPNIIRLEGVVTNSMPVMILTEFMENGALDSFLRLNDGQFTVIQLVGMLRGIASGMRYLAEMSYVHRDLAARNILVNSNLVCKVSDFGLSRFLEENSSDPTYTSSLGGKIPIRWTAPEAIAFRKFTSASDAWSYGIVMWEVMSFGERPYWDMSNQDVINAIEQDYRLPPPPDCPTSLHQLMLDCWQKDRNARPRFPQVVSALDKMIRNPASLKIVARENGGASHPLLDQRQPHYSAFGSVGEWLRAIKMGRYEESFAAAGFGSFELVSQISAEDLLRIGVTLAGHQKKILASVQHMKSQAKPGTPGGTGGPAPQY
The experiment can be described thus: Inhibition of EphB4.

For experiment [2], the target named is T1, Ephrin type-B receptor 4. The experiment can be described thus: Inhibition of Myc-His-tagged EphB4 expressed in CHOK1 cells assessed as phosphorylation by ELISA. It is filed as cell-based, CHO-K1. For orientation: ELISA stands for enzyme-linked immunosorbent assay.

What is called IC50 is the concentration that inhibits the measured activity by half.

On to `CS(=O)(=O)Nc1cc(Nc2nccc(Nc3c(Cl)ccc4c3OCO4)n2)cc(NS(C)(=O)=O)c1`, for which the concentration for half-maximal inhibition (IC50) on Ephrin type-B receptor 4 [1] was determined as 15 nM; on Ephrin type-B receptor 4 [2], 7170 nM.

As to `NC(=O)c1cc(Nc2nccc(Nc3c(Cl)ccc4c3OCO4)n2)cc(C(N)=O)c1`, the IC50 on Ephrin type-B receptor 4 [1] was 77 nM; at Ephrin type-B receptor 4 [2], above 30000 nM.

In the case of `CS(=O)(=O)Nc1cc(Nc2nccc(Nc3c(Cl)ccc4c3OCO4)n2)cc(S(N)(=O)=O)c1`, the IC50 stood at 1 nM on Ephrin type-B receptor 4 [1] and 14100 nM on Ephrin type-B receptor 4 [2]. Consider `NS(=O)(=O)c1cccc(Nc2nccc(Nc3c(Cl)ccc4c3OCO4)n2)c1`, for which the IC50 on Ephrin type-B receptor 4 [2] amounted to 172 nM. Regarding `CS(=O)(=O)c1cc(Nc2nccc(Nc3c(Cl)ccc4c3OCO4)n2)cc(C(N)=O)c1`, the values for the IC50 against Ephrin type-B receptor 4 [1] and at Ephrin type-B receptor 4 [2] were 23 nM and 22200 nM, respectively. On the same counts, the results for `CS(=O)(=O)Nc1cc(Nc2nccc(Nc3c(Cl)ccc4c3OCO4)n2)cc(S(C)(=O)=O)c1` are 12 nM and 2050 nM. Consider `CS(=O)(=O)c1cc(Nc2nccc(Nc3c(Cl)ccc4c3OCO4)n2)cc(N2CCOCC2)c1`, for which the IC50 at Ephrin type-B receptor 4 [1] worked out at 2 nM; on Ephrin type-B receptor 4 [2], 32 nM. With `NC(=O)c1cccc(Nc2nccc(Nc3c(Cl)ccc4c3OCO4)n2)c1`, at Ephrin type-B receptor 4 [2], the IC50 was determined as 900 nM. As to `CS(=O)(=O)Nc1cc(Nc2nccc(Nc3c(Cl)ccc4c3OCO4)n2)cc(N2CCOCC2)c1`, the IC50 was 2 nM against Ephrin type-B receptor 4 [1] and 170 nM at Ephrin type-B receptor 4 [2]. The matching figures for `NC(=O)c1cc(Nc2nccc(Nc3c(Cl)ccc4c3OCO4)n2)cc(N2CCOCC2)c1`: 13 nM and 887 nM. On the same counts, the results for `CS(=O)(=O)Nc1cc(Nc2nccc(Nc3c(Cl)ccc4c3OCO4)n2)cc(C(N)=O)c1` are 370 nM and above 30000 nM.

As to `CS(=O)(=O)c1cc(Nc2nccc(Nc3c(Cl)ccc4c3OCO4)n2)cc(S(C)(=O)=O)c1`, the IC50 was 114 nM at Ephrin type-B receptor 4 [1] and 209 nM at Ephrin type-B receptor 4 [2].
